What all share (assay type): cell-based, human
Assay [1] concerns MOLT-3 cells. Nature of the assay: MTT cytotoxicity assay, MOLT-3. As to conditions: means ± SEM. An excerpt: (§1) U-937, HL-60, MOLT-3, NALM-6, and SK-MEL-1 cells were from DSMZ (German Collection of Microorganisms and Cell Cultures, Braunschweig, Germany). U-937/Bcl-2 cells were kindly provided by Dr. Jacqueline Bréard (INSERM U749, Faculté de Pharmacie Paris-Sud, Châtenay-Malabry, France). The U-937 is a pro-monocytic, human promyelocytic leukemia cell line that was isolated from a histiocytic lymphoma. HL-60 is a human acute myeloid leukemia cell line. MOLT-3 is a human acute lymphoblastic leukemia cell line. NALM-6 is a human B cell precursor leukemia. SK-MEL-1 is a human melanoma cell line growing singly or in clumps (occasional giant, polynucleated cell) in suspension. Cells were cultured in RPMI 1640 medium containing 10% (v/v) heat-inactivated fetal bovine serum, 100 μg/mL streptomycin, and 100 U/mL penicillin, incubated at 37 °C in a humidified atmosphere containing 5% CO2 as described. The doubling times of the cell lines were 24 h in HL-60, 30 h in U-937, U-937/Bcl-2, 40 h in MOLT-3 and NALM-6, and several days in SK-MEL-1 cells. Human peripheral blood mononuclear cells (PBMC) were isolated from heparin-anticoagulated blood of healthy volunteers by centrifugation with Ficoll-Paque Plus (GE Healthcare Bio-Sciences AB, Uppsala, Sweden). PBMC were also stimulated with phytohemagglutinin (2 µg/mL) for 48 h before the experimental treatment. The trypan blue exclusion method was used for counting the cells by a hemocytometer with 95% viability in all the experiments. Compounds were dissolved in dimethyl sulfoxide (DMSO) and kept under dark conditions at 25 °C. […] The cytotoxicity of the synthetic compounds was evaluated by colorimetric 3-(4,5-dimethyl-2-thiazolyl-)-2,5-diphenyl-2H-tetrazolium bromide (MTT) assay as previously described. Briefly, cells (5000 per well) were incubated with increasing concentrations of compounds for 72 h into a 96-well plate. Then, the supernatants were removed and 0.5 mg/mL MTT was added and incubated for 4 h at 37 °C. Sodium dodecyl sulfate (10% w/v) in 0.05 M HCl was added to solubilize the reaction products and the absorbance was measured at 570 nm with a reference wavelength of […] using an ELISA reader (Bio-Rad, Hercules, CA, USA). The IC50 values (concentrations inducing a 50% inhibition of cell viability) were determined graphically for each experiment by a nonlinear regression using the curve fitting routine implemented within the software Prism 5.0 (GraphPad, La Jolla, CA, USA).
On the technique in general: Formazan colour is commonly taken as a measure of viable cells.

Assay [2] has as its system NALM-6 cells. Kind of assay: MTT cytotoxicity assay, NALM-6. The settings on record: 72 h, MTT, means ± SEM.
Description: as §1

Assay [3] deals with U-937/Bcl-2 cells. Kind of assay: MTT cytotoxicity assay, U-937/Bcl-2. As to conditions: means ± SEM.
Description: as §1

For assay [4], the system named is SK-MEL-1 cells. Kind of assay: MTT cytotoxicity assay, SK-MEL-1. As to conditions: means ± SEM.
Description: as §1

Assay [5] has as its system U-937 leukemia cells. Kind of assay: Cell cycle and sub-G1 analysis by flow cytometry (propidium iodide). The settings on record: 24 h; for fold increase of sub-G1 cells over control / %G1 / %G2-M / %S / %Sub-G1: 10 µM; for fold increase of sub-G1 cells over control: U-937; for %G1 / %G2-M / %S / %Sub-G1: U-937, means ± S.E.; for cell cycle arrest: U-937, 10 µM. The method, then: (§2) Cells (2.5 × 10^5) were centrifuged for 10 min at 500× g, washed with cold PBS, fixed with ice-cold 75% ethanol and stored at −20 °C overnight. Samples were then centrifuged at 500× g for 10 min at 4 °C, washed with PBS, resuspended in 200 μL of PBS containing 100 μg/mL RNase and 50 μg/mL propidium iodide and incubated for 1 h in the dark. The DNA content was analyzed by flow cytometry with a BD FACSVerse^TM cytometer (BD Biosciences, San Jose, CA, USA). Apoptosis was also evaluated by flow cytometric analysis of double-staining annexin V-FITC and propidium iodide cells as previously described.

For assay [6], the system named is U-937 cells. Nature of the assay: Annexin V-FITC/propidium iodide flow cytometry, U-937. The settings on record: U-937, 10 µM, 24 h; for annexin V-FITC positive cells: control 3.5%. The method, then: as §2
Assay [7] has as its system PBMC. Kind of assay: Annexin V-FITC/propidium iodide flow cytometry, PBMC. As to conditions: 24 h; for annexin V-FITC positive cells with respect to control: 3 µM; for fold increase of annexin V-FITC positive cells with respect to control / annexin V-FITC positive cells: 10 µM; for annexin V-FITC positive cells: control 9.3%.
Description: as §1, §2
(In flow cytometry, cells or beads pass a laser one at a time.)

Assay [8] has as its system U-937 cells. Kind of assay: Western blot of PARP, caspases and cytosolic cytochrome c. As to conditions: 24 h; for full-length PARP protein (immunoblot): U-937, 10 µM; for mitochondrial cytochrome c release (cytosolic fraction, immunoblot): U-937, increasing concentrations. The method, then:
For whole cell lysates, cells were harvested by centrifugation (500× g, 10 min, 4 °C), washed twice with PBS, and pellets were resuspended in lysis buffer (1% Triton X-100, 10 mM sodium fluoride, 2 mM EDTA, 20 mM Tris-HCl (pH 7.4), 2 mM tetrasodium pyrophosphate, 10% glycerol, 137 mM NaCl, and 20 mM sodium β-glycerophosphate), with the protease inhibitors phenylmethylsulfonyl fluoride (PMSF, 1 mM), aprotinin, leupeptin, and pepstatin A (5 μg/mL each) and kept on ice for 15 min. Cells were sonicated on ice 5 times (5 s each, with intervals between each sonication of 5 s) with a Braun Labsonic 2000 microtip sonifier and centrifuged (11,000× g, 10 min, 4 °C). For subcellular fractionation, cells were washed twice with PBS and then resuspended in ice-cold buffer (20 mM HEPES (pH 7.5), 250 mM sucrose, 10 mM KCl, 1.5 mM MgCl2, 1 mM EDTA, 1 mM EGTA, and 1 mM dithiothreitol containing protease inhibitors (0.1 mM PMSF and 1 µg/mL leupeptin, aprotinin, and pepstatin A)). After 15 min on ice, cells were lysed by pushing them several times through a 29-gauge needle, and the lysate was centrifuged at 1000× g for 5 min at 4 °C. The resulting supernatant fraction was centrifuged at 15,000× g for 20 min at 4 °C, and the resulting supernatant was used as the cytosolic fraction. The Bradford method was used to determine protein concentration. The samples loaded in sodium dodecyl sulfate-polyacrylamide gel (from 7.5 to 15% depending on the molecular weight of interest) were prepared with the same protein amount and boiled for 5 min. The proteins were transferred to poly(vinylidene difluoride) membranes for 20 h at 20 V. The membranes were blocked with 10% nonfat milk in Tris-buffered saline (50 mM Tris-HCl (pH 7.4), 150 mM NaCl) containing 0.1% Tween-20 (TBST) for 1 h, followed by incubation with specific antibodies against caspase-3, PARP, caspase-9, β-actin, tubulin, and cytochrome c overnight at 4 °C. Membranes were washed three times with TBST and incubated for 1 h with the specific secondary antibody and the antigen-antibodies complexes were visualized by enhanced chemiluminescence using the manufacturer’s protocol.
(In general: A western blot detects proteins with antibodies after separation by electrophoresis.)

Several values for one entry are separate records, joined by “and”; a condition that tells them apart may be missing. Equal entries are not always repeated.

`Cc1ccc(S(=O)(=O)NC(=Nc2ccc(/C=C/C(=O)c3c(O)cccc3OCc3ccccc3)cc2)N2CCN(C)CC2)cc1` [Compound 6f]: in assay [1] (Homo sapiens, MOLT-3, 72 h), the IC50 came to 1.5 µM. This molecule also had an IC50 in assay [2] (Homo sapiens, NALM-6, 72 h) of 2.7 µM. The molecule also showed an IC50 in assay [3] (Homo sapiens, U-937, 72 h) of 2.2 ± 0.8 µM. This molecule also showed an IC50 in assay [4] (Homo sapiens, SK-MEL-1, 72 h) of 4.5 ± 0.4 µM. In assay [5], the “fold increase of sub-G1 cells over control” value is ~ 10 fold, the “%G1” value is on record as 35.2 ± 3.8 %, the “%G2-M” value worked out at 10.8 ± 1.6% and the “%S” value worked out at 28.3 ± 0.2%. In assay [5], the “%Sub-G1” value was 25.1% and 25.1 ± 2.6 %; the cell cycle arrest entry is given as “not caused by a significant cell cycle arrest in any phase”. In addition, in assay [6], the “fold increase of annexin V-FITC positive cells over control” value came to 11 fold and the “annexin V-FITC positive cells” value stood at 38%. Also, in assay [7], the “annexin V-FITC positive cells with respect to control” value is recorded as “hardly increased”, the “fold increase of annexin V-FITC positive cells with respect to control” value was determined as 3 fold and the “annexin V-FITC positive cells” value was 27%. In addition, in assay [8], the “full-length PARP protein (immunoblot)” value was “dramatically decreased” and the “mitochondrial cytochrome c release (cytosolic fraction, immunoblot)” value is listed as “concentration-dependent release”.

Consider `O=C(/C=C/c1ccc(N=C(Nc2ccccc2)N2CCCCC2)cc1)c1c(O)cccc1OCc1ccccc1` [Compound 6i], for which, in assay [1] (72 h), the IC50 came to 7.1 ± 1.3 µM. Moreover, the half-inhibitory concentration (IC50) in assay [1] (Homo sapiens, MOLT-3, 72 h) is below 10 µM. The same molecule returned an IC50 in assay [2] of 10.8 ± 0.5 µM. The concentration for half-maximal inhibition (IC50) in assay [2] (Homo sapiens, NALM-6, 72 h) is around 10 µM. In assay [3] (72 h), this molecule gave a concentration for half-maximal inhibition (IC50) of 5.1 ± 1.8 µM. The same molecule registered a half-inhibitory concentration (IC50) in assay [3] (Homo sapiens, U-937, 72 h) below 10 µM. In assay [4] (72 h), this molecule came in with a 50% inhibitory concentration (IC50) of 13.8 ± 1.2 µM. This molecule also showed a 50% inhibitory concentration (IC50) in assay [4] (Homo sapiens, SK-MEL-1, 72 h) of around 10 µM. Besides, in assay [5], the “fold increase of sub-G1 cells over control” value is ~ 13 fold, the “%G1” value came to 35.9 ± 2.1 %, the “%G2-M” value came out at 8.4 ± 0.1 % and the “%S” value is reported as 23.6 ± 2.4 %. In assay [5], the “%Sub-G1” value was 31.6% and 31.6 ± 4.5 %; the cell cycle arrest result was “not caused by a significant cell cycle arrest in any phase”. Moreover, in assay [6], the “fold increase of annexin V-FITC positive cells over control” value is recorded as 10 fold and the “annexin V-FITC positive cells” value worked out at 36%. Moreover, in assay [7], the “annexin V-FITC positive cells with respect to control” value is reported as “hardly increased”, the “fold increase of annexin V-FITC positive cells with respect to control” value amounted to 1.4 fold and the “annexin V-FITC positive cells” value worked out at 13%. Also, in assay [8], the “full-length PARP protein (immunoblot)” value is reported as “dramatically decreased” and the “mitochondrial cytochrome c release (cytosolic fraction, immunoblot)” value was “concentration-dependent release”.

The IC50 is the point on the concentration scale where inhibition reaches its midpoint. The low end stands for higher potency, the high end for lower potency.

Values taken from publication PMC9779571, “Guanidine Derivatives Containing the Chalcone Skeleton Are Potent Antiproliferative Compounds against Human Leukemia Cells” (International Journal of Molecular Sciences, 2022).
